Experimental data published in article PMC6886872, “Discovery of a small molecule inhibitor targeting dengue virus NS5 RNA-dependent RNA polymerase” (PLoS Neglected Tropical Diseases, 2019).
Where two headings read alike, the source gives them in different places.

How the values were obtained:
full-length DENV3 NS5 = molecular target: T1, full-length DENV3 NS5 (Dengue virus type 3, UniProt P27915); assay: biochemical
T1 construct: full-length NS5 proteins, comprising the N-terminal MTase and the C-terminal RdRp; His-tag (N, cleaved yes); SUMO (N, cleaved yes); made in house; host or cells: E. coli KRX

full-length DENV4 NS5 = molecular target: T2, full-length DENV4 NS5 (Dengue virus type 4, UniProt P09866); assay: biochemical; conditions: read-out: IC50 Polymerase assay
T2 construct: full-length NS5 proteins, comprising the N-terminal MTase and the C-terminal RdRp; His-tag (N, cleaved yes); SUMO (N, cleaved yes); made in house; host or cells: E. coli KRX

DENV1 (Mochizuki strain) = assay: Cell-based antiviral assay, viral RNA in supernatant of infected Vero cells (RT-qPCR); set-up: species or system Dengue virus serotype 1 (DENV1); conditions: Dengue virus, 72 h, viral RNA 3 days after infection
Description: (§1) The experiments were performed in triplicate.

DENV2 16681 strain = assay: as above; conditions: Dengue virus, 72 h; DENV2 16681, Vero cells, viral RNA 3 days after infection
Description: as §1

DENV3 (H87 strain) = assay: as above; conditions: 72 h, viral RNA 3 days after infection
Description: as §1

DENV4 (H241 strain) = assay: as above; conditions: 72 h, viral RNA 3 days after infection
Description: as §1

DENV2 P04/08 strain = assay: as above; conditions: 72 hours after infection
[1] = test system: recombinant DENV2 (WT, C780A, C780Q NS5); type: cell-based
Vero cells = assay: Cytotoxicity, WST-1 assay; type: cell-based; conditions: two days culture
Description: The cytotoxic activities of the compounds were tested using a WST-1 assay (Roche Diagnostics), according to the manufacturer’s instructions. […] Ten μL of WST-1 solution was added to each well, and the cells were further incubated for 30 min. The absorbance was measured at 450 nm, with subtraction of the nonspecific background at 650 nm.

[2] = test system: NS5 proteins from DENV1–4; type: biochemical; conditions: range over NS5 proteins from DENV1–4; read-out: IC50 values, RdRp activities
DENV1–4 infections = assay: Cell-based antiviral assay, summary over serotypes; conditions: range over DENV1–4; read-out: EC50 values, antiviral activities
Description: as §1

Compound: CC(=O)Oc1ccc2oc(=O)sc2c1 [RK-0404678, (2-Oxo-1,3-benzoxathiol-5-yl) acetate]
- IC50 (full-length DENV3 NS5): 287 ± 11 µM
- IC50 (full-length DENV4 NS5): 445 ± 23 µM
- EC50 (DENV1 (Mochizuki strain)): 29.5 ± 4.2 µM
- EC50 (DENV2 16681 strain): 6 ± 0.3 µM
- EC50 (DENV3 (H87 strain)): 29.4 ± 1.8 µM
- EC50 (DENV4 (H241 strain)): 31.9 ± 2.8 µM
- antiviral effect on DENV2 P04/08 strain compared with 16681 strain (DENV2 P04/08 strain): comparable effect
- EC50 ([1]; DENV2 NS5 C780A mutant virus (Site 1)): 3.3 ± 1.1 µM
- EC50 ([1]; DENV2 NS5 C780Q mutant virus (Site 1)): 12.8 ± 2.2 µM
- EC50 ([1]; WT (recombinant) DENV2 virus): 7.1 ± 0.67 µM
- cytotoxicity in Vero cells (Vero cells): marginal cytotoxicity even at the highest concentration (50 μM)
- IC50 [2]: 46.2 to 445 µM
- EC50 (DENV1–4 infections): 6 to 31.9 µM
